From patent publication US10081631B2, “2-(1H-indazol-3-yl)-1H-imidazo[4,5-C]pyridine and therapeutic uses thereof” (Samumed, LLC, priority 2014, dated 2018) come the findings set out here.

SMILES strings stand for the structures.

Experiment [1] has as its system primary human fibroblasts derived from IPF patients (LL29 cells). The experiment is described as follows: Inhibition of fibrosis: TGF-β1-treated primary human fibroblasts from IPF patients (LL29), αSMA staining. The experiment is classed as cell-based. As to conditions: Fibroblast, 96 h, TGF-β1 20 ng/mL, 4 days, % αSMA-positive cells. An excerpt: The above synthesized compounds were screened using primary human fibroblasts (derived from IPF patients) treated with TGF-β1 to determine their ability to inhibit the fibrotic process.
Primary human fibroblasts derived from IPF patients (LL29 cells) [^1Xiaoqiu Liu, et. al., “Fibrotic Lung Fibroblasts Show Blunted Inhibition by cAMP Due to Deficient cAMP Response Element-Binding Protein Phosphorylation”, Journal of Pharmacology and Experimental Therapeutics (2005), 315(2), 678-687; ^2Watts, K. L., et. al., “RhoA signaling modulates cyclin D1 expression in human lung fibroblasts; implications for idiopathic pulmonary fibrosis”, Respiratory Research (2006), 7(1), 88] were obtained from American Type Culture Collection (ATCC) and expanded in F12 medium supplemented with 15% Fetal Bovine Serum and Penicillin/Streptomycin.
Each compound was dissolved in DMSO as a 10 mM stock and used to prepare compound source plates. Serial dilution (1:2, 11-point dose-response curves from 10 μM to 1.87 nM) and compound transfer was performed using the ECHO 550 (Labcyte, Sunnyvale, Calif.) into 384-well clear bottom assay plates (Greiner Bio-One) with appropriate DMSO backfill for a final DMSO concentration of 0.1%. LL29 cells were plated at 1,500 cells/well in 80 μl/well F12 medium supplemented with 1% Fetal Bovine Serum. One hour after addition of the cells, TGF-β1 (Peprotech; 20 ng/mL) was added to the plates to induce fibrosis (ref 1 and 2 above). Wells treated with TGF-β1 and containing DMSO were used as controls. Cells were incubated at 37° C. and 5% CO2 for 4 days. Following incubation for 4 days, SYTOX green nucleic acid stain (Life Technologies [Thermo Fisher Scientific]) was added to the wells at a final concentration of 1 uM and incubated at room temperature for 30 min. Cells were then fixed using 4% formaldehyde (Electron Microscopy Sciences), washed 3 times with PBS followed by blocking and permeabilization using 3% Bovine Serum Albumin (BSA; Sigma) and 0.3% Triton X-100 (Sigma) in PBS. Cells were then stained with antibody specific to α-smooth muscle actin (αSMA; Abcam) (ref 1 and 2 above) in 3% Bovine Serum Albumin (BSA; Sigma) and 0.3% Triton X-100 (Sigma) in PBS, and incubated overnight at 4° C. Cells were then washed 3 times with PBS, followed by incubation with Alexa Flor-647 conjugated secondary antibody (Life Technologies [Thermo Fisher Scientific]) and DAPI at room temperature for 1 hour. Cells were then washed 3 times with PBS and plates were sealed for imaging. αSMA staining was imaged by excitation at 630 nm and emission at 665 nm and quantified using the Compartmental Analysis program on the CellInsight CX5 (Thermo Scientific). Dead or apoptotic cells were excluded from analysis based on positive SYTOX green staining. % of total cells positive for αSMA were counted in each well and normalized to the average of 11 wells treated with TGF-β1 on the same plate using Dotmatics' Studies Software. The normalized averages (fold change over untreated) of 3 replicate wells for each compound concentration were used to create dose-responses curves and EC50 values were calculated using non-linear regression curve fit in the Dotmatics' Studies Software. The EC50 values are reported.

Experiment [2] concerns Wnt activity (Sp5-Luc reporter, SW480 colon carcinoma cells). The experiment is described as follows: Screening assay for Wnt activity: Sp5-Luc reporter gene assay in SW480 cells. The experiment is classed as cell-based. The settings on record: Homo sapiens, 42 h incubation, luminescence. The gist of the method:
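IC50 values come from variable-slope four-parameter fits of luciferase signal normalized to DMSO wells. Stable Sp5-Luc reporter SW480 colon carcinoma cells were exposed to compounds in a 3-fold dilution series (source plates from 10 mM stock) for forty-two hours at 37 °C.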

In the case of `CCC(=O)Nc1cncc(-c2ccc3[nH]nc(-c4nc5c(-c6cccs6)nccc5[nH]4)c3c2)c1` [Compound 287, N-(5-(3-(4-(Thiophen-2-yl)-1H-imidazo[4,5-c]pyridin-2-yl)-1H-indazol-5-yl)pyridin-3-yl)propionamide], a half-maximal response in experiment [1] (EC50) required 0.062 µM. Moreover, the IC50 – broadly, the concentration at which inhibition is half-maximal – in experiment [2] is 0.01 µM.

As for `O=C(Nc1cncc(-c2ccc3[nH]nc(-c4nc5c(-c6cccc(F)c6)nccc5[nH]4)c3c2)c1)C1CCCC1` [Compound 21, N-(5-(3-(4-(3-Fluorophenyl)-1H-imidazo[4,5-c]pyridin-2-yl)-1H-indazol-5-yl)pyridin-3-yl)cyclopentanecarboxamide], the EC50 (usually the concentration giving half of the maximal effect) in experiment [1] amounted to 0.317 µM. In experiment [2], this molecule had an IC50 of 0.0128 µM.

In the case of `CC(C)Nc1cncc(-c2ccc3[nH]nc(-c4nc5c(-c6ccoc6)nccc5[nH]4)c3c2)c1` [Compound 272, 5-(3-(4-(Furan-3-yl)-1H-imidazo[4,5-c]pyridin-2-yl)-1H-indazol-5-yl)-N-isopropylpyridin-3-amine], in experiment [1], a half-maximal response (EC50) required 0.009 µM. The same molecule returned an IC50 in experiment [2] of less than 0.001 µM.

The molecule `Fc1ccc(-c2nccc3[nH]c(-c4n[nH]c5ccc(-c6cncc(CN7CCCC7)c6)cc45)nc23)cc1` [Compound 40, 4-(4-Fluorophenyl)-2-(5-(5-(pyrrolidin-1-ylmethyl)pyridin-3-yl)-1H-indazol-3-yl)-1H-imidazo[4,5-c]pyridine] came in with an EC50 in experiment [1] of 0.024 µM. This molecule showed an IC50 in experiment [2] of 0.075 µM.

Consider `O=C(Nc1cncc(-c2ccc3[nH]nc(-c4nc5c(-c6ccc(F)cc6)nccc5[nH]4)c3c2)c1)C1CCC1` [Compound 46, N-(5-(3-(4-(4-Fluorophenyl)-1H-imidazo[4,5-c]pyridin-2-yl)-1H-indazol-5-yl)pyridin-3-yl)cyclobutanecarboxamide], for which the EC50 in experiment [1] came out at 0.009 µM. In experiment [2], inhibition was half-maximal at 0.01 µM (IC50).

`O=C(Nc1cncc(-c2ccc3[nH]nc(-c4nc5c(-c6ccsc6)nccc5[nH]4)c3c2)c1)C1CCCC1` [Compound 255, N-(5-(3-(4-(Thiophen-3-yl)-1H-imidazo[4,5-c]pyridin-2-yl)-1H-indazol-5-yl)pyridin-3-yl)cyclopentanecarboxamide] had an EC50 in experiment [1] of 1.22 µM. In experiment [2], the IC50 turned out to be 0.0594 µM.

With `O=C(CC1CCNCC1)Nc1cncc(-c2ccc3[nH]nc(-c4nc5c(-c6cccc(F)c6)nccc5[nH]4)c3c2)c1` [Compound 1777, N-(5-(3-(4-(3-Fluorophenyl)-1H-imidazo[4,5-c]pyridin-2-yl)-1H-indazol-5-yl)pyridin-3-yl)-2-(piperidin-4-yl)acetamide], the EC50 in experiment [1] came to 0.107 µM. In addition, the IC50 in experiment [2] was determined as 0.243 µM.

In turn, `FC1(F)CCN(Cc2cncc(-c3ccc4[nH]nc(-c5nc6c(-c7cccs7)nccc6[nH]5)c4c3)c2)C1` [Compound 311, 2-(5-(5-((3,3-Difluoropyrrolidin-1-yl)methyl)pyridin-3-yl)-1H-indazol-3-yl)-4-(thiophen-2-yl)-1H-imidazo[4,5-c]pyridine] showed an EC50 in experiment [1] of 0.083 µM. In experiment [2], this molecule yielded an IC50 of 0.32 µM.

`Cn1cc(-c2ccc3[nH]nc(-c4nc5c(-c6cccc(F)c6)nccc5[nH]4)c3c2)cn1` [Compound 1772, 4-(3-Fluorophenyl)-2-(5-(1-methyl-1H-pyrazol-4-yl)-1H-indazol-3-yl)-1H-imidazo[4,5-c]pyridine] yielded an EC50 in experiment [1] of 9.99 µM. Moreover, the IC50 in experiment [2] stood at 0.011 µM.

Consider `CN(C)c1cncc(-c2ccc3[nH]nc(-c4nc5c(N6CCCCC6)nccc5[nH]4)c3c2)c1` [Compound 163, N,N-Dimethyl-5-(3-(4-(piperidin-1-yl)-1H-imidazo[4,5-c]pyridin-2-yl)-1H-indazol-5-yl)pyridin-3-amine], for which a half-maximal response in experiment [1] (EC50) required 1.55 µM. Moreover, inhibition in experiment [2] was half-maximal at 0.003 µM (IC50).

In turn, `CN1CCN(c2nccc3[nH]c(-c4n[nH]c5ccc(-c6cncc(CN7CCCCC7)c6)cc45)nc23)CC1` [Compound 223, 4-(4-Methylpiperazin-1-yl)-2-(5-(5-(piperidin-1-ylmethyl)pyridin-3-yl)-1H-indazol-3-yl)-1H-imidazo[4,5-c]pyridine] had an EC50 in experiment [1] of 1.11 µM. The half-maximal inhibitory concentration (IC50) in experiment [2] was 0.172 µM.

`O=C(Nc1cncc(-c2ccc3[nH]nc(-c4nc5c(-c6cccc(F)c6)nccc5[nH]4)c3c2)c1)C1CC1` [Compound 19, N-(5-(3-(4-(3-Fluorophenyl)-1H-imidazo[4,5-c]pyridin-2-yl)-1H-indazol-5-yl)pyridin-3-yl)cyclopropanecarboxamide] yielded an EC50 in experiment [1] of 0.009 µM. In experiment [2], this molecule came in with a 50% inhibitory concentration (IC50) of 0.001 µM.

Regarding `CN1CCN(c2nccc3[nH]c(-c4n[nH]c5ccc(-c6cncnc6)cc45)nc23)CC1` [Compound 234, 4-(4-Methylpiperazin-1-yl)-2-(5-(pyrimidin-5-yl)-1H-indazol-3-yl)-1H-imidazo[4,5-c]pyridine], in experiment [1], the concentration for a half-maximal effect (EC50) stood at 0.28 µM. In experiment [2], this molecule registered an IC50 of 0.021 µM.

Consider `Fc1ccc(-c2nccc3[nH]c(-c4n[nH]c5ccc(-c6cncnc6)cc45)nc23)cc1` [Compound 52, 4-(4-Fluorophenyl)-2-(5-(pyrimidin-5-yl)-1H-indazol-3-yl)-1H-imidazo[4,5-c]pyridine], for which the EC50 in experiment [1] came to 0.539 µM. Further, in experiment [2], 0.025 µM corresponded to half-maximal inhibition (IC50).

`c1cncc(-c2ccc3[nH]nc(-c4nc5c(-c6cccnc6)nccc5[nH]4)c3c2)c1` [Compound 82, 4-(Pyridin-3-yl)-2-(5-(pyridin-3-yl)-1H-indazol-3-yl)-1H-imidazo[4,5-c]pyridine] gave an EC50 in experiment [1] of 0.009 µM. Further, in experiment [2], the IC50 worked out at 0.008 µM.

Turning to `CC(C)(C)C(=O)Nc1cncc(-c2ccc3[nH]nc(-c4nc5c(-c6cccnc6)nccc5[nH]4)c3c2)c1` [Compound 86, N-(5-(3-(4-(Pyridin-3-yl)-1H-imidazo[4,5-c]pyridin-2-yl)-1H-indazol-5-yl)pyridin-3-yl)pivalamide], in experiment [1], a half-maximal effect (EC50) was put at 0.993 µM. The molecule further registered a concentration for half-maximal inhibition (IC50) in experiment [2] of 0.0179 µM.

In turn, `CC(C)(C)C(=O)Nc1cncc(-c2ccc3[nH]nc(-c4nc5c(-c6ccsc6)nccc5[nH]4)c3c2)c1` [Compound 242, N-(5-(3-(4-(Thiophen-3-yl)-1H-imidazo[4,5-c]pyridin-2-yl)-1H-indazol-5-yl)pyridin-3-yl)pivalamide] returned an EC50 in experiment [1] of 1.18 µM. Besides, in experiment [2], the IC50 was 0.0274 µM.

Regarding `CS(=O)(=O)NCc1cc(F)cc(-c2nccc3[nH]c(-c4n[nH]c5ccc(-c6cncc(CNCc7ccccc7)c6)cc45)nc23)c1` [Compound 413, N-(3-(2-(5-(5-((Benzylamino)methyl)pyridin-3-yl)-1H-indazol-3-yl)-1H-imidazo[4,5-c]pyridin-4-yl)-5-fluorobenzyl)methanesulfonamide], the midpoint of the response in experiment [1], the EC50, lay at 0.009 µM. Besides, in experiment [2], the IC50 amounted to 0.187 µM.

With `Fc1cccc(-c2nccc3[nH]c(-c4n[nH]c5ccc(-c6ccncc6)cc45)nc23)c1` [Compound 1784, 4-(3-Fluorophenyl)-2-(5-(pyridin-4-yl)-1H-indazol-3-yl)-1H-imidazo[4,5-c]pyridine], the EC50 in experiment [1] was 9.99 µM. The IC50 in experiment [2] is more than 10 µM.

`Cc1ccc(-c2nccc3[nH]c(-c4n[nH]c5ccc(-c6cncc(N)c6)cc45)nc23)s1` [Compound 341, 5-(3-(4-(5-Methylthiophen-2-yl)-1H-imidazo[4,5-c]pyridin-2-yl)-1H-indazol-5-yl)pyridin-3-amine] showed an EC50 in experiment [1] of 0.009 µM. The molecule further returned an IC50 in experiment [2] of 0.0013 µM.

Molecule `CN1CCN(c2nccc3[nH]c(-c4n[nH]c5ccc(-c6cncc(NC(=O)CC(C)(C)C)c6)cc45)nc23)CC1` [Compound 224, 3,3-Dimethyl-N-(5-(3-(4-(4-methylpiperazin-1-yl)-1H-imidazo[4,5-c]pyridin-2-yl)-1H-indazol-5-yl)pyridin-3-yl)butanamide] showed an EC50 in experiment [1] of 1.09 µM. In experiment [2], this molecule came in with an IC50 of 0.673 µM.

In the case of `Cc1ccncc1-c1ccc2[nH]nc(-c3nc4c(-c5ccsc5)nccc4[nH]3)c2c1` [Compound 239, 2-(5-(4-Methylpyridin-3-yl)-1H-indazol-3-yl)-4-(thiophen-3-yl)-1H-imidazo[4,5-c]pyridine], in experiment [1], the midpoint of the response, the EC50, lay at 0.06 µM. This molecule also displayed a half-inhibitory concentration (IC50) in experiment [2] of 0.003 µM.
